One compound from patent publication US20090264528A1, “SERINE PALMITOYLCOA TRANSFERASE (SPT) INHIBITION BY MYRIOCIN OR GENETIC DEFICIENCY DECREASES CHOLESTEROL ABSORPTION” (The Research Foundation of State University of New York, priority 2008, published 2009) can be followed below.

Format in all cases: in vivo, mouse
Test [1] has as its system cholesterol absorption. As to the kind of experiment: Cholesterol absorption, fecal dual-isotope ratio method. The following applies: single gavage, feces 24 hours. Here is the method:
FIGS. 5A-I depict several graphs that illustrate that SPT deficient mice absorbed less cholesterol. Mice (n=6, 10-12 weeks old) were fasted for 5 hours and gavaged with 0.1 microCi [^14C]cholesterol and 0.2 microCi [^3H]sitostanol with 0.5 mg unlabeled cholesterol dissolved in 15 microl of olive oil. Feces were collected after 24 hours and lipids were extracted for counting (FIGS. 5A, 5D, and 5G, cholesterol absorption, WT vs WT/myriocin; apoE KO vs apoE KO/myriocin; WT vs Sptlc1^+/−, respectively). Blood was collected during the 24 hour period (Panels B, E, and H, [^14C]cholesterol in blood, WT vs WT/myriocin; apoE KO vs apoE KO/myriocin; WT vs Sptlc1^+/−, respectively). To test specificity, the mice were gavaged with 0.2 microCi [^3H]triolein together with 0.5 mg/ml cold cholesterol. Blood was collected during the 24 hour period (FIGS. 5C, 5F, and 5I, [^3H] glycerolipids in blood, WT versus WT/myriocin; apoE KO versus apoE KO/myriocin; WT versus Sptlc1^+/−, respectively). […]
Cholesterol absorption studies: A classical fecal dual-isotope ratio method was used for the cholesterol absorption study. […] The cholesterol absorption ratio was calculated as: % absorption={1−[fecal(^14C/^3H)]/administered(^14C/^3H)}×100. In some cases, mice were sacrificed, plasma collected, and radioactivity counted. […] Each of these, as well as a part of the liver, were digested and radioactivity counted individually. […]

In test [2] the test system is NPC1L1 mRNA. In words: Real-time PCR, NPC1L1 mRNA. As to conditions: small intestine (jejunum). Here is the method: (§1) FIGS. 9A-F depict that Mouse small intestine and liver NPC1L1, ABCG5/G8, and ABCA1 mRNA measurements. NPC1L1, ABCG5/G8, and ABCA1 mRNA levels were measured by real-time PCR as described in “Methods and Materials.” FIG. 9A, jejunum from WT mice with or without myriocin treatment; FIG. 9B, jejunum from apoE KO mice with or without myriocin treatment; FIG. 9C, jejunum from WT and Sptlc1^+/− mice; FIG. 9D, liver from WT mice with or without myriocin treatment; FIG. 9E, liver from apoE KO mice with or without myriocin treatment; FIG. 9F, liver from WT and Sptlc1^+/− mice. Values are mean±SD, n=5. *P<0.01.
Real-time PCR examined genes' expression: Mice were sacrificed by cervical dislocation. Jejunum was dissected, and total RNA extracted with Trizol (Invitrogen). cDNA was synthesized with an Invitrogen kit. […] The genes' relative expression was expressed as mean±SD. […]
For further elucidation of the possible mechanisms for cholesterol absorption reduction in the SPT-deficient small intestine, NPC1L1, ABCG5/G8, and ABCA1 mRNA levels in myriocin-treated WT, apoE KO, and Sptlc1^+/− mice, as well as in controls were measured. […] Also, the liver mRNA levels were measured to find that myriocin treatment or Sptlc1 deficiency has no influence on ABCG5/G8 mRNA levels (FIG. 7B). […] NPC1L1 mRNA in WT or Sptlc1^+/− livers were not detected (data not shown).

The test system of test [3] is NPC1L1. In words: Western blot of small intestine homogenates, NPC1L1. As to conditions: WT and apoE KO mice, compared with nontreated animals. As for the experimental part: FIG. 8 depicts that SPT deficiency decreased NPC1L1 and ABCA1, and increased ABCG5 in mouse small intestine. Tissue homogenates were prepared as described in Methods, and equal amounts of homogenates from each mouse were pooled in each group (n=5). A total of 50 microg pooled sample from each group was immunoblotted with antibodies against NPC1L1, ABCA1, and ABCG5. Immunoblots of beta (β)-actin were used as a loading control.
Preparation and Western blot analysis of small intestine homogenates: A total of 50-100 mg of small intestine sample was homogenized and lysed proteins were immunoblotted, as previously described, (3) with a polyclonal rabbit antihuman NPC1L1 antiserum 69B, a polyclonal rabbit antimouse ABCG5 antiserum, a polyclonal antimouse ABCA1 antibody, and a monoclonal mouse anti-(beta)β-actin antibody.
Next, Western blot measurements of NPC1L1 and ABCG5/G8 were completed, where the measurement were located in apical membranes of the enterocytes. […] Also, ABCA1 was measured, which is located in the basal membranes of the enterocytes and is involved in cholesterol secretion.

Test [4] concerns ABCG8 mRNA. In words: Real-time PCR, ABCG8 mRNA. As to conditions: for increase of ABCG8 mRNA levels compared with controls: small intestine, P<0.01. As for the experimental part:
as §1
Real-time PCR examined genes' expression: Mice were sacrificed by cervical dislocation. Jejunum was dissected, and total RNA extracted with Trizol (Invitrogen). cDNA was synthesized with an Invitrogen kit. Polymerase chain reaction (PCR) was performed on a total volume of 20 microl with the sybergreen kit from Applied Biosystems, 18S being used as an internal control. The amplification program consisted of activation at 95 degrees C. for 10 minutes, followed by 40 amplification cycles: 95 degrees C. for 15 seconds, 60 degrees C. for 1 minute. Each sample was triplicated. The genes' relative expression was expressed as mean±SD. The primers are located in the below table which lists the name, sequence, and sequence identification number.
For further elucidation of the possible mechanisms for cholesterol absorption reduction in the SPT-deficient small intestine, NPC1L1, ABCG5/G8, and ABCA1 mRNA levels in myriocin-treated WT, apoE KO, and Sptlc1^+/− mice, as well as in controls were measured. […] Moreover, intestinal MTP activity was not influenced by SPT deficiency (data not shown). Also, the liver mRNA levels were measured to find that myriocin treatment or Sptlc1 deficiency has no influence on ABCG5/G8 mRNA levels […]. […] NPC1L1 mRNA in WT or Sptlc1^+/− livers were not detected (data not shown).
In general terms: In qPCR the cycle at which signal appears reflects the starting amount.

`CCCCCCC(=O)CCCCCC/C=C/C[C@@H](O)[C@H](O)[C@@](N)(CO)C(=O)O` [Myriocin, myriocin]: the “reduction in cholesterol absorption compared with controls” value in test [1] (myriocin-treated WT mice, P<0.01) amounted to 36%; in test [1] (myriocin-treated apoE KO mice, P<0.001) it was 50%. The “NPC1L1 mRNA levels” value in test [2] is “No significant changes”. Besides, the “NPC1L1 protein mass in small intestine” value in test [3] was “significantly decreased”. Besides, the “ABCG8 mRNA levels (printed ABCG5/G8)” value in test [4] (liver) was “no influence”. For the same compound, the results for the “increase of ABCG8 mRNA levels compared with controls” value in test [4] (WT mice) and in test [4] (apoE KO mice) were 46% and 63%, respectively.
